According to patent US20260062422A1 (Halda Therapeutics OpCo, Inc., priority 2022, published 2026):
pIC50: −log10 of the molar value.

Assays:
VCaP cells = test: Cellular growth inhibition assay for VCaP cells, CellTiter-Glo; assay type: cell-based, human; conditions: Homo sapiens, VCaP, 72 h, 72 hours treatment, CellTiter-Glo 2.0
Method in brief: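 GI50 values come from four-parameter curve fits of luminescence data normalized to a zero baseline. Compound, in medium with 0.5% DMSO, was added one day after plating and left for 72 h before CellTiter-Glo 2.0 addition.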

[1] = biological target: T1, progesterone receptor ligand binding domain (LBD) (Homo sapiens, UniProt P06401); test: FP assay (PolarScreen Progesterone Receptor Competitor Assay) for binding to progesterone receptor LBD; conditions: GST-tagged PR LBD, Fluormone tracer, fluorescence polarization, 2 hours; Table 17
T1 construct: GST-tagged PR LBD, Fluormone tracer, and compound were mixed; purchased Life Technologies A15905 or a15906
T1 sequence (P06401 679-913 limits assumed): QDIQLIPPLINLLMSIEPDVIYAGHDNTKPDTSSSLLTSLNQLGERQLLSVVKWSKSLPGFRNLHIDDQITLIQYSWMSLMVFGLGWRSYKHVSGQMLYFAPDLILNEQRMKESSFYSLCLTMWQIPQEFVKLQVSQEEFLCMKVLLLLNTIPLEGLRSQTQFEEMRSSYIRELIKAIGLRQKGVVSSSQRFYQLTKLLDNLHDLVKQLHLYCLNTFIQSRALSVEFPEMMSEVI
Method: Compounds were tested using the PolarScreen™ Progesterone Receptor Competitor Assay Kit (Life Technologies Cat #A15905 or a15906), as per the manufacturer's instructions. Briefly, GST-tagged PR LBD, Fluormone tracer, and compound were mixed and incubated for 2 hours at room temperature in the dark. Following incubation, the plates were spun at 3000×g for 30 seconds, then sealed with an optical adhesive cover, and fluorescence polarization was measured using appropriate excitation and emission filters with an EnVision Plate Reader (Perkin Elmer). Compound concentration vs. mP value were plotted in Prism (GraphPad). A four-parameter non-linear regression curve fit was applied to dose-response data to determine the half-maximal inhibitory concentration (IC50) for each test compound.

T47D cells = test: Cellular growth inhibition assay for T47D cells, CellTiter-Glo; assay type: cell-based, human; conditions: Homo sapiens, T47D, 72 h, 72 hours treatment, CellTiter-Glo 2.0 cell viability
Method in brief: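 Growth inhibition as GI50, fitted with four parameters to CellTiter-Glo luminescence after 72 h of compound exposure (0.5% DMSO). Cells were T47D, grown in insulin-supplemented (0.2 units/mL) DMEM with 10% FBS and treated one day post-seeding.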

## Cc1sc2c(c1C)C(c1ccc(CCCOC3CCN(c4ncc5c(n4)CN([C@H]4C(C)(C)[C@H](Oc6ccc(C#N)c(Cl)c6)C4(C)C)C5=O)CC3)cc1)=NC(Cc1ncco1)c1nnc(C)n1-2 (stereo partly drawn) [Compound I-134]
VCaP cells
  GI50: < 500 nM
[1]
  pIC50: 6.30 to 7.30
T47D cells
  GI50: 500 to 1500 nM
